Data: patent US11365208B2, “Silylated derivatives of resveratrol and the use thereof in neurodegenerative, neurological or inflammatory diseases” (Consejo Superior De Investigaciones Cientificas, priority 2016, dated 2022)

Experiments:
[1] = system: mouse model of multiple sclerosis; test: Experimental allergic encephalomyelitis (EAE) mouse model of multiple sclerosis; type: in vivo; conditions: for motor capacity: preventive regimen, 20 mg/kg intraperitoneal twice a week for 3 weeks from day 5 after induction; for clinical classification of the motor capacity: 20 mg/kg intraperitoneal twice a week for 2 weeks from day 12 after induction, especially days 20-30
Method: Compound 15 was investigated as a possible treatment in a mouse model of multiple sclerosis. The compound resveratrol (RES) was added as a reference. An experimental allergic encephalomyelitis model, EAE, was used as an animal model of multiple sclerosis.
In this model, mice are injected with myelin oligodendrocyte glycoprotein (MOG, MOG35-55, is the 21 amino acid peptide corresponding to the sequence from positions 35 to 55 of the MOG glycoprotein) and virus pertussis (pertussis toxin, PTX) in order to induce the disease. Two days after induction, a new dose of the virus was given again, because some mice were not developing symptoms of EAE. Once the damage was caused, the mice were treated with RES, compound 15, or vehicle, and we studied the effect thereof on the mouse on the basis of different motor parameters on a scale from 0 normal to 4 incapable.
• Vehicle without tween-80 emulsifier (control EAE without T) • Vehicle with tween-80 emulsifier (EAE-T control) • Preventive RES (without tween-80 emulsifier) (RES-PREV) • Therapeutic RES (no tween-80 emulsifier) (RES-TERAP) • Preventive compound 15 (with tween-80 emulsifier) (compound 15-PREV) • Therapeutic compound 15 (with tween-80 emulsifier) (compound 15-TERAP)
(§1) The (intraperitoneal) administration of the compounds (resveratrol, compound 15, and vehicle, with or without tween-80) is started 5 days after induction. 250 μL of the compound in question (20 mg/kg) were injected twice a week and the treatment was maintained for 3 weeks. The treatment was then stopped, but the state of the mice was monitored for another 3 weeks (47 days total).
as §1, with “started 12” for “started 5”, “for 2” for “for 3”

TNF-α = TNF-α in supernatant of LPS-stimulated RAW macrophages (ELISA); type: cell-based; conditions: 10 μM, 24 h
Method: (§2) To determine the production of cytokines, 5×10^5 RAW 264.7 macrophages were seeded in 24-well plates (0.5 ml per well). The compounds to be tested were then added (10 μM), and the macrophages were either stimulated or not through the addition of LPS (1 μg/ml) to the culture medium. After 24 hours, the levels of IL-6 and TNF-α were measured in the supernatants by ELISA using the capture and biotinylated antibodies from BD PharMingen and PrepoTech following known protocols. The levels of NO in the supernatants at 24 hours were measured indirectly by determining the nitrite concentration in the medium using the Griess reagent according to established protocol. A minimum of two independent experiments and three replicates per experiment were performed for each measured value. The values are expressed as the mean±standard deviation.
(§3) In the previous assay, the levels of various inflammation parameters were measured (TNF-α, NO, and IL-6) by ELISA after treatment with RES or with some of the compounds of the invention (2, 3, 5, 6, 8, and 9).

NO = NO (nitrite, Griess reagent) in supernatant of LPS-stimulated RAW macrophages; type: cell-based; conditions: 10 μM, 24 h
Method: as §2, §3

[2] = system: mouse model of Huntington's disease; test: 3-nitro-propionic acid (3NP) mouse model of Huntington's disease; type: in vivo; conditions: 3NP mice
Method: Compound 15 was investigated as a possible treatment in a mouse model of Huntington's disease. The compound resveratrol (RES) was added as a reference.
In this model, increasing amounts of 3-nitro-propionic acid (3NP) are injected into the mice, causing lesions with a phenotype very similar to that of Huntington's disease, both mechanically and pathologically. Once the damage was caused, the mice were treated with RES, compound 15, or vehicle, and we studied the effect thereof on the mouse on the basis of different parameters. Behavioral studies (rotarod test), an assessment was made of motor capacity (tabulated on a scale of 0 normal to 4 incapable, in several parameters such as general mouse dystonia, ability to flip over, and the ability to explore), weight was monitored, and subsequent measurements were taken such as of the inhibition of pro-inflammatory cytokines in plasma or brain.
The design of the experiment is shown in FIG. 16. #=Behavioral study and rotarod test; ϕ Administration of the compound; W=weeks of age of the mice; D=Day of the experiment.

IL-6 = IL-6 in supernatant of LPS-stimulated RAW macrophages (ELISA); type: cell-based; conditions: 10 μM, 24 h
Method: as §2, §3

[3] = system: SH-SY5Y neuroblastoma cell line; test: Neuroprotection assay: SH-SY5Y viability after H2O2 damage (MTT); type: cell-based; conditions: 10 μM, H2O2 100 μM, 24 h, 1% DMSO
Method: The SH-SY5Y neuroblastoma cell line was cultured in petri dishes pre-treated with collagen (100 ng/ml) with F12 medium supplemented with penicillin/streptomycin and 10% inactivated fetal bovine serum.
(§4) Cell viability assays with neurons were prepared in 96-well plates pre-treated with collagen by seeding 20,000 cells/well in a volume of 100 μL and incubating the cells for 24 h before the addition of the compounds. The compounds to be tested were dissolved in DMSO and added in three different concentrations (1, 10, and 100 μM) in order to determine their toxicity. The final percentage of DMSO in each well was adjusted to 1%. The cell viability was evaluated 24 h after the addition of the compounds by means of the MTT assay according to the manufacturer's method. Mean values and standard deviations were calculated from at least eight different measurements from several independent experiments.
For the neuroprotection assay, the neurons were cultured and seeded in the same manner as for the cell viability assay. […] The cell viability was evaluated 24 h after the addition of the compounds by means of the MTT assay according to the manufacturer's method. Mean values and standard deviations were calculated from at least eight different measurements from several independent experiments. […]

zebrafish (Danio rerio) = test: PTZ-induced neurotoxicity model in zebrafish larvae, AChE activity; type: in vivo; conditions: 5 dpf larvae, 10 μM, 1 h pre-treatment then 6 h with 5 mM PTZ
Method: The objective of this assay was to analyze the protective effect of various derivatives of resveratrol in a model of neurotoxicity induced by the neurotoxin pentylenetetrazole (PTZ). As an experimental model, the zebrafish (Danio rerio) was used to study the effect of the compounds on acetylcholinesterase activity (AChE) in larvae at 5 days post-fertilization (dpf).
Zebrafish embryos were seeded in 50 ml of dilution water (AD) in a Petri dish and grown to 5 dpf (larval stage). […] Next, the larvae were transferred using a Pasteur pipette to a 24-well microplate, so that each well contained five larvae, making ten replicates per condition. First, the pre-treatment of the 5 dpf larvae was performed. For this, the larvae were incubated at 26±1° C. for 1 hour in a volume of 2 ml of AD for the two control groups (Control and Control+PTZ), of physostigmine (Phys) 20 μM, which is a commercial inhibitor of the enzyme AChE for the Phys group, and of the test compounds at a concentration of 10 μM. A medium exchange was then carried out, and the larvae were incubated with the compounds in combination with 5 mM PTZ for 6 hours at 26±1° C. After this incubation period, all of the larvae were examined, and it was determined that the general state of the larvae was totally normal, without any visible anomaly or anomalous behavior. Finally, the larvae were processed for the analysis of the AChE activity.
In order to determine the AChE levels, larvae processing was carried out according to the established technical study protocol once the experimental period was completed. The larvae were homogenized mechanically, and the samples were centrifuged to obtain the supernatant, which were used to determine the levels of the AChE enzyme as a function of the treatments administered. In addition, the determination of total protein of each experimental group was carried out according to the established technical study protocol. Finally, the AChE levels determined in the control group were taken as a reference measurement and deemed to be 100%.

RAW 264.7 macrophages = test: Inflammation assay: RAW macrophage viability after LPS (MTT); type: cell-based; conditions: 10 μM, LPS 100 ng/ml, 24 h, 1% DMSO
Method: RAW 264.7 macrophages were cultured in P75 with high-glucose DMEM supplemented with penicillin/streptomycin and 10% inactivated fetal bovine serum.
as §4, with “The cell viability” for “Cell viability”, “with RAW macrophages” for “with neurons”, “plates” for “plates pre-treated with collagen”, “seeding 25,000” for “seeding 20,000”, “for 4” for “for 24”
For the testing of mitigation of damage caused by the addition of LPS, the RAW 264.7 macrophages were cultured according to the procedure described above. […] The cell viability was evaluated 24 h after the addition of the compounds by means of the MTT assay according to the manufacturer's method. Mean values and standard deviations were calculated from at least eight different measurements from several independent experiments.

Oc1ccc(C=Cc2cc(O)cc(O)c2)cc1 [RES, resveratrol]
motor capacity [1]: does reduce damage on a motor level
clinical classification of the motor capacity ([1]; therapeutic regimen): do not appear to improve
TNF-α level in culture medium (TNF-α): significantly decreases
NO level in culture medium (NO): significantly decreases
improvement of the phenotype caused by 3NP, compared with compound 15 [2]: differences between compound 15 and RES are not great
IL-6 level in culture medium (IL-6): significantly decreases
cell viability recovered [3]: up to 50%
AChE activity relative to control (neuroprotective effect) (zebrafish (Danio rerio)): lower neuroprotective effect
cell viability recovered (RAW 264.7 macrophages): up to 62%

CCCCCCCC(=O)OCC1OC(Oc2cc(/C=C/c3ccc(O[Si](C(C)C)(C(C)C)C(C)C)cc3)cc(O[Si](C(C)C)(C(C)C)C(C)C)c2)C(O)C(O)C1O (stereo not drawn) [compound 14, 3,4′-O-ditriisopropylsilyl-5-(-6-octanoyl)glucosyl resveratrol]
AChE activity relative to control (neuroprotective effect) (zebrafish (Danio rerio)): lower neuroprotective effect similar to that observed for resveratrol

CC[Si](CC)(CC)Oc1ccc(/C=C/c2cc(O)cc(O[Si](CC)(CC)CC)c2)cc1 [compound 8]
AChE activity relative to control (neuroprotective effect) (zebrafish (Danio rerio)): lower neuroprotective effect similar to that observed for resveratrol

CC[Si](CC)(CC)Oc1cc(/C=C/c2ccc(O)cc2)cc(O[Si](CC)(CC)CC)c1 [compound 9]
AChE activity relative to control (neuroprotective effect) (zebrafish (Danio rerio)): significantly prevent the decrease in AChE activity induced by PTZ

CCCC(=O)Oc1ccc(/C=C/c2cc(O[Si](CC)(CC)CC)cc(O[Si](CC)(CC)CC)c2)cc1 [compound 17, 3,5-O-triethylsilyl-4′-butanoyl resveratrol]
AChE activity relative to control (neuroprotective effect) (zebrafish (Danio rerio)): lower neuroprotective effect similar to that observed for resveratrol

CCCCCCCC(=O)OCC1OC(Oc2ccc(/C=C/c3cc(O[Si](C(C)C)(C(C)C)C(C)C)cc(O[Si](C(C)C)(C(C)C)C(C)C)c3)cc2)C(O)C(O)C1O (stereo not drawn) [compound 15, 3,5-O-ditriisopropylsilyl-4′-(6-octanoyl)glucosyl resveratrol]
effectiveness relative to RES on a molar dose basis ([1]; 20 mg/kg each, dose of RES in μmol/kg about 3× dose of compound 15): much more effective
motor capacity [1]: does not have a great effect on motor capacity
clinical classification of the motor capacity ([1]; therapeutic regimen): improves the clinical classification of the motor capacity of the mice compared to the control
clinical classification of the motor capacity after end of administration ([1]; therapeutic regimen, days 30-47, administration interrupted): improvement in the clinical classification was maintained
severity of the motor lesions (motor capacity) [2]: decreasing the severity of the motor lesions
weight of the animals [2]: increasing the weight of the animals
levels of pro-inflammatory cytokines such as IL-6 ([2]; plasma): decreasing
AChE activity relative to control (neuroprotective effect) (zebrafish (Danio rerio)): significantly prevent the decrease in AChE activity induced by PTZ
